Assay results as given in US11266643B2, “Triaryl compounds for treatment of PD-L1 diseases” (CHEMOCENTRYX, INC., priority 2019, dated 2022).

The molecules below were run against human PD-L1 (Homo sapiens (Human), UniProt Q9NZQ7) (assay: Enzyme-Linked Immunosorbent Assay (ELISA), PD-1/PD-L1 binding). Settings: PD-1/PD-L1 ELISA, human PD-L1 coated plates, Table 1.
In short: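 Competitive ELISA: human PD-1 […] (0.31 μg/mL) and serially diluted compounds (1:5) incubated 1 h at 37° C on wells coated with […] human PD-L1. Signal via streptavidin-HRP/TMB, stopped with 2 N H2SO4, measured as A450.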

Sequence of human PD-L1 (Q9NZQ7 19-239): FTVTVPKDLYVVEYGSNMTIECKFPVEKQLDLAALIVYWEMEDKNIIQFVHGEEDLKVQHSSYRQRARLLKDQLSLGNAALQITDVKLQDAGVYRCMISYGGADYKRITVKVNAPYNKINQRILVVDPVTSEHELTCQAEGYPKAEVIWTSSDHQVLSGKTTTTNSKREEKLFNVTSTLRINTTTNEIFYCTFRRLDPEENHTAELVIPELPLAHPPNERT

| SMILES | IC50 [nM] |
| --- | --- |
| COc1cc(-c2cccc(-c3cccc(NC(=O)c4ccccn4)c3C)c2C)cc(F)c1CNCC(=O)O [Example 1.385] | 10 to 1000 |
| COc1cc(-c2cccc(-c3cccc(NC(=O)c4nccs4)c3C)c2C)cc(F)c1CN1CC(C(=O)O)C1 [Example 1.346] | 10 to 1000 |
| COc1cc(-c2cccc(-c3cccc(NC(=O)c4ccncn4)c3C)c2C)cc(F)c1CN1CC(O)C1 [Example 1.337] | < 10 |
| COc1cc(-c2cccc(-c3cccc(NC(=O)C4CN(CC(=O)O)CCO4)c3C)c2C)cc(F)c1CN (stereo not shown) [Example 1.314] | 10 to 1000 |
| COc1cc(-c2cccc(-c3cccc(NC(=O)c4ccc(C(=O)N(C)C)cn4)c3C)c2C)cc(F)c1CN [Example 1.306] | < 10 |
| COc1cc(-c2cccc(-c3cccc(NC(=O)c4ccc(Cl)cn4)c3C)c2C)cc(F)c1CN1CC(C(=O)O)C1 [Example 1.369] | 10 to 1000 |
| COc1cc(-c2cccc(-c3cccc(NC(=O)c4ccccn4)c3C)c2C#N)cc(F)c1CN1CC(C(=O)O)C1 [Example 1.356] | 10 to 1000 |
| COc1cc(-c2cccc(-c3cccc(NC(=O)c4ncco4)c3C)c2C)cc(F)c1CN1CC(C(=O)O)C1 [Example 1.349] | 10 to 1000 |
| COc1cc(-c2cccc(-c3cccc(NC(=O)C4CCCO4)c3C)c2C)cc(F)c1CN[C@@](C)(CO)C(=O)O (stereo partly shown) [Example 1.336] | 1000 to 10000 |
| COc1cc(-c2cccc(-c3cccc(NC(=O)c4ccc(CC(N)=O)cn4)c3C)c2C)cc(F)c1CN [Example 1.310] | < 10 |
| COc1cc(-c2cccc(-c3cccc(NC(=O)c4c[nH]c(=O)n(C)c4=O)c3C)c2C)cc(F)c1CN[C@@H]1CNC(=O)C1 [Example 1.229] | < 10 |
| COc1cc(-c2cccc(-c3cccc(NC(=O)c4ccccn4)c3C)c2C)cc(F)c1CN1CC(C)(C(=O)O)C1 [Example 1.360] | < 10 |
| COc1cc(-c2cccc(-c3cccc(NC(=O)c4ccc(C(=O)NCC(=O)O)cn4)c3C)c2C)cc(F)c1CN [Example 1.305] | < 10 |
| COc1cc(-c2cccc(-c3cccc(Nc4nccc5nccnc45)c3C)c2C)cc(F)c1CNC[C@@H]1CCC(=O)N1 [Example 1.200] | < 10 |
| COc1cc(-c2cccc(-c3cccc(Nc4ncnc5cccnc45)c3C)c2C)cc(F)c1CN1CC(C(=O)O)C1 [Example 1.243] | 1000 to 10000 |
| COc1cc(-c2cccc(-c3cccc(Nc4nccc5c4C(=O)N(C)CC5)c3C)c2C)cc(F)c1CNCCO [Example 1.215] | 10 to 1000 |
| COC(=O)c1ccc(C(=O)Nc2cccc(-c3cccc(-c4cc(F)c(CN)c(OC)c4)c3C)c2C)nc1 [Example 1.353] | 10 to 1000 |
| COc1cc(-c2cccc(-c3cccc(NC(=O)C4CCCCN4)c3C)c2C)cc(F)c1CN1CC(C(=O)O)C1 (stereo not shown) [Example 1.350] | 1000 to 10000 |
| COc1cc(-c2cccc(-c3cccc(NC(=O)c4ccccn4)c3C)c2C)cc(F)c1CN1CCC2(C1)NC(=O)NC2=O (stereo not shown) [Example 1.362] | 10 to 1000 |
| COc1cc(-c2cccc(-c3cccc(NC(=O)c4ccccn4)c3C)c2C)cc(F)c1CN1CC[C@@H](C(=O)O)C1 [Example 1.366] | < 10 |
| COc1cc(-c2cccc(-c3cccc(NC(=O)c4c[nH]c(=O)n(C)c4=O)c3C)c2C)cc(F)c1CNCC(C)(C)O [Example 1.232] | < 10 |
| COc1cc(-c2cccc(-c3cccc(NC(=O)c4c[nH]c(=O)n(C)c4=O)c3C)c2C)cc(F)c1CN[C@@H](C)CO [Example 1.226] | < 10 |
| COc1cc(-c2cccc(-c3cccc(NC(=O)c4ccccn4)c3C)c2C)cc(F)c1CNC(CO)CO [Example 1.376] | 10 to 1000 |
| COc1cc(-c2cccc(-c3cccc(NC(=O)c4cncn(C)c4=O)c3C)c2C)cc(F)c1CN(C)CCC(=O)O [Example 1.268] | < 10 |
| COc1cc(-c2cccc(-c3cccc(NC(=O)c4c[nH]c(=O)n(C)c4=O)c3C)c2C)cc(F)c1CNC1COC1 [Example 1.216] | 10 to 1000 |
| COc1cc(-c2cccc(-c3cccc(Nc4nccc5c4C(=O)N(C)CC5)c3C)c2C)cc(F)c1CN1CC(C(=O)O)C1 [Example 1.265] | < 10 |

Same assay, conditions: human PD-1/PD-L1 ELISA, plates coated with human PD-L1

| SMILES | IC50 [nM] |
| --- | --- |
| COc1cc(-c2cccc(-c3cccc(Nc4nccc5nccnc45)c3C)c2C)cc(F)c1CNCc1c[nH]c(=O)[nH]c1=O [Example 1.101] | 10 to 1000 |
| COc1cc(-c2cccc(-c3cccc(Nc4nccc5nccnc45)c3C)c2C)cc(F)c1CN[C@H]1CNC(=O)C1 [Example 1.153] | < 10 |
| COc1cc(-c2cccc(-c3cccc(NC(=O)c4nn(C)c(=O)n(C)c4=O)c3C)c2C)cc(F)c1CNCCC(N)=O [Example 1.090] | < 10 |
| COc1cc(-c2cccc(-c3cccc(NC(=O)c4nn(C)c(=O)n(C)c4=O)c3C)c2C)cc(F)c1CN[C@H]1CCCNC1=O [Example 1.060] | 10 to 1000 |
| COc1cc(-c2cccc(-c3cccc(NC(=O)c4c[nH]c(=O)n(C)c4=O)c3C)c2C)cc(F)c1CNCc1noc(=O)[nH]1 [Example 1.120] | 10 to 1000 |
| COc1cc(-c2cccc(-c3cccc(Nc4nccc5nccnc45)c3Cl)c2C)cc(F)c1CNCC(C)(C)C(N)=O [Example 1.022] | 10 to 1000 |
| COc1cc(-c2cccc(-c3cccc(Nc4nccc5nccnc45)c3C)c2F)cc(F)c1CNCC(C)(C)C(N)=O [Example 1.029] | 10 to 1000 |
| COc1cc(-c2cccc(-c3cccc(Nc4nccc5nccnc45)c3C)c2C)cc(F)c1CN[C@H]1CCNC1=O [Example 1.125] | 10 to 1000 |
| COc1cc(-c2cccc(-c3cccc(NC(=O)c4cccn(C)c4=O)c3C)c2C)cc(F)c1CNC[C@H]1CCC(=O)N1 [Example 1.145] | < 10 |
| COc1cc(-c2cccc(-c3cccc(NC(=O)c4cncn(C)c4=O)c3C)c2C)cc(F)c1CNC1CCOC1 (stereo not shown) [Example 1.139] | < 10 |
| COc1cc(-c2cccc(-c3cccc(NC(=O)c4cn(C)c(=O)n(C)c4=O)c3Cl)c2Cl)cc(F)c1CN[C@H]1CCC(=O)NC1 [Example 1.007] | < 10 |
| COc1cc(-c2cccc(-c3cccc(NC(=O)c4cn(C)c(=O)n(C)c4=O)c3C)c2F)cc(F)c1CN[C@@H]1CCOC[C@@H]1O [Example 1.016] | < 10 |
| COc1cc(-c2cccc(-c3cccc(NC(=O)c4cn(C)c(=O)n(C)c4=O)c3C)c2C)cc(F)c1CNC1CC(=O)NC1=O (stereo not shown) [Example 1.121] | 10 to 1000 |
| COc1cc(-c2cccc(-c3cccc(NC(=O)c4cn(C)c(=O)n(C)c4=O)c3C)c2C)cc(F)c1CN[C@@H]1CNC(=O)C1 [Example 1.188] | < 10 |
| COc1cc(-c2cccc(-c3cccc(NC(=O)c4nc5c(s4)CNCC5)c3F)c2C)cc(F)c1CNCCCC(=O)O [Example 1.403] | < 10 |
| COc1cc(-c2cccc(-c3cccc(NC(=O)c4cn(C)c(=O)n(C)c4=O)c3C)c2C)cc(F)c1CNC1CCOC1 (stereo not shown) [Example 1.162] | < 10 |
| COc1cc(-c2cccc(-c3cccc(NC(=O)c4c[nH]c(=O)n(C)c4=O)c3C)c2C)cc(F)c1CNC1CCNC(=O)C1 (stereo not shown) [Example 1.096] | < 10 |
| COc1cc(-c2cccc(-c3cccc(NC(=O)c4cn(C)c(=O)n(C)c4=O)c3C)c2C)cc(F)c1CN[C@H]1COC[C@@H]1O [Example 1.072] | < 10 |
| COc1cc(-c2cccc(-c3cccc(NC(=O)c4cn(C)c(=O)n(C)c4=O)c3C)c2C)cc(F)c1CN(C)C[C@@H]1CCC(=O)N1 [Example 1.175] | < 10 |

Same assay, conditions: plate-coated human PD-L1, biotinylated Human PD-1, absorbance at 450 nm

| SMILES | IC50 [nM] |
| --- | --- |
| COc1cc(-c2cccc(-c3cccc(Nc4nccc5nccnc45)c3C)c2Cl)cc(F)c1CNCC1(O)CC1 [Example 2.111] | < 10 |
| COc1cc(-c2cccc(-c3cccc(NC(=O)c4cn(C)c(=O)n(C)c4=O)c3Cl)c2Cl)cc(F)c1CN1CCC(C)(O)CC1 [Example 2.009] | < 10 |
| COc1cc(-c2cccc(-c3cccc(NC(=O)c4cn(C)c(=O)n(C)c4=O)c3C)c2Cl)cc(F)c1CN[C@@H]1CCC[C@@H]1O [Example 2.051] | < 10 |
| COc1cc(-c2cccc(-c3cccc(NC(=O)c4cn(C)c(=O)n(C)c4=O)c3C)c2Cl)cc(F)c1CN(C)[C@@H]1CCOC[C@@H]1O [Example 2.062] | < 10 |
| COc1cc(-c2cccc(-c3cccc(NC(=O)c4cn(C)c(=O)n(C)c4=O)c3C)c2Cl)cc(F)c1CN1CCC(C(=O)O)CC1 [Example 2.019] | < 10 |
| COc1c(CNC[C@@H]2CCC(=O)N2)ccc(-c2cccc(-c3cccc(NC(=O)c4cn(C)c(=O)n(C)c4=O)c3Cl)c2Cl)c1F [Example 2.001] | < 10 |
| COc1cc(-c2cccc(-c3cccc(NC(=O)c4cn(C)c(=O)n(C)c4=O)c3Cl)c2Cl)cc(F)c1CN1CC2(CCNC2=O)C1 [Example 2.002] | < 10 |
| COc1cc(-c2cccc(-c3cccc(NC(=O)c4cn(C)c(=O)n(C)c4=O)c3C)c2Cl)cc(F)c1CN[C@H]1COCC[C@@H]1O [Example 2.088] | < 10 |
| COc1cc(-c2cccc(-c3cccc(NC(=O)c4cn(C)c(=O)n(C)c4=O)c3C)c2Cl)cc(F)c1CN[C@H]1COC[C@H]1O [Example 2.093] | < 10 |
| COc1cc(-c2cccc(-c3cccc(NC(=O)c4cn(C)c(=O)n(C)c4=O)c3Cl)c2Cl)cc(F)c1CN1CCC(C)(C(=O)O)CC1 [Example 2.005] | < 10 |
| COc1cc(-c2cccc(-c3cccc(NC(=O)c4cn(C)c(=O)n(C)c4=O)c3C)c2Cl)cc(F)c1CN[C@H]1CNC(=O)C1 [Example 2.084] | < 10 |
| COc1cc(-c2cccc(-c3cccc(Nc4nccc5nccnc45)c3C)c2Cl)cc(F)c1CNCC(C)(C)C(N)=O [Example 2.113] | < 10 |
| COc1cc(-c2cccc(-c3cccc(NC(=O)c4cn(C)c(=O)n(C)c4=O)c3C)c2Cl)cc(F)c1CN[C@H]1CCOC1 [Example 2.087] | < 10 |
| COc1cc(-c2cccc(-c3cccc(Nc4nccc5nccnc45)c3Cl)c2Cl)cc(F)c1CN[C@@H]1COC[C@@H]1O [Example 2.110] | < 10 |
| COc1cc(-c2cccc(-c3cccc(NC(=O)c4cn(C)c(=O)n(C)c4=O)c3Cl)c2Cl)cc(F)c1CN[C@H]1COCC[C@@H]1O [Example 2.071] | < 10 |
| COc1cc(-c2cccc(-c3cccc(NC(=O)c4cn(C)c(=O)n(C)c4=O)c3C)c2C)cc(F)c1CN1CC(C(=O)O)C1 [Example 2.014] | < 10 |
